“And” between values parts separate entries of the source, which are not always exact repeats. Equal values may be shown once.

Consider six molecules from article PMC9007292, “8‐Prenylnaringenin tissue distribution and pharmacokinetics in mice and its binding to human serum albumin and cellular uptake in human embryonic kidney cells” (Food Science & Nutrition, 2022).

One series deals with site I of HSA (Homo sapiens, UniProt P02768). The series is described as follows: Fluorescence competitive binding assay with site‐selective probe DNSA. As to conditions: for Inhibition ratio, site I / Competitive inhibition rate of the probe binding, Site I: DNSA probe; for inhibition at 100 µM: human, defatted human serum albumin (HSA) in phosphate buffer, pH 7.4, probe dansylamide (DNSA); for Competitive inhibition rate of the probe binding, Site I: 100 µM, n = 3, mean ± SE.
site I of HSA, sequence (P02768 25-609): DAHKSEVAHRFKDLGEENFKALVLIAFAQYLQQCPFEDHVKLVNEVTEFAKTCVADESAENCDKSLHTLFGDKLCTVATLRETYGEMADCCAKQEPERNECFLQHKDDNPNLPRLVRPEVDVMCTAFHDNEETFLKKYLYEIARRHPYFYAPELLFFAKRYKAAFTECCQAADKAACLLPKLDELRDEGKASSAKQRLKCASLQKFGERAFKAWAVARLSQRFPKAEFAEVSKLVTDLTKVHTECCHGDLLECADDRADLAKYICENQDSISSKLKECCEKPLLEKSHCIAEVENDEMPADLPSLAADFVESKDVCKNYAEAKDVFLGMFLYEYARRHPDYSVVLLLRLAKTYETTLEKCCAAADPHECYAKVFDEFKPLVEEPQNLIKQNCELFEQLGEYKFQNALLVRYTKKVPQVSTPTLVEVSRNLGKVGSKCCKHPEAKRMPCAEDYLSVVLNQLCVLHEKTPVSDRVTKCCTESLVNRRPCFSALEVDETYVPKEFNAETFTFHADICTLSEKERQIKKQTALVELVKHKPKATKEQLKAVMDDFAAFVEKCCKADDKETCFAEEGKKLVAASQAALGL

A short description of series [1]: Tissue distribution after 22 days of 8‐PN or naringenin mixed diet. The series is classed as in vivo, C57/BL6 mice. The note with it: for Percentage of aglycone in the liver: aglycone to total; for 8‐PN aglycone in the liver: without deconjugation. An excerpt: We planned the nutritional composition and feeding period according to previous similar research (Andres-Lacueva et al., [2012]; Bieger et al., [2008]; Boer et al., [2005]; Mukai et al., [2013]; Takumi et al., [2011]). […] Though this dose concentration may not be achieved through regular diet or supplementation, this concentration was used in accordance with previous studies that evaluated the tissue distribution of flavonoids (0.2% [w/w]) (Mukai et al., [2013]; Takumi et al., [2011]). The mice were fed each diet via normal oral feeding for 22 days. In the pharmacokinetic study (Section 2.5), we administered each nutrient to mice at a dose of 50 mg/kg body weight (BW) via oral gavage after 18 h of starvation. Although this dose concentration may not reflect regular diet or supplementation, this or higher concentrations have been applied for pharmacokinetic study of flavonoids (Bai et al., [2020]; Hung et al., [2018]; Mukai et al., [2013]). All experimental protocols were approved by the Committee on Animal Experiments of Tokushima University (approval number: 11013). All efforts were made to minimize animal suffering. Seven-week-old male C57/BL6 mice (Japan SLC) were housed in a room maintained at 23 ± 1°C under a 12-h/12-h light/dark cycle. Diets consisted of 8-PN or naringenin (0.56 mmol/kg diet) mixed with AIN-93M (AIN-93M; Oriental Yeast Company), with the cellulose contents reduced to adjust the composition of other nutrients. The mice (n = 7 or 8) were fed these diets via normal oral feeding for 22 days and allowed free access to water. The liver, kidneys, quadricep muscles, pancreas, lungs, brain, spleen, and heart were collected from the mice under anesthesia and weighed. Before freezing, the liver tissues were flushed with ice-cold phosphate-buffered saline (PBS, pH 7.4) to avoid blood contamination. All samples were stored at -80°C under N2 gas until extraction of flavonoid. Sample preparation was performed according to a previous report (Mukai et al., [2013]). Each tissue was homogenized in PBS on ice (nine times the volume of the tissue wet weight) using a Teflon homogenizer (As One). […] The hydrolysates were then subjected to extraction three times with equal volumes of ethyl acetate and evaporated using a centrifugal evaporator (CVE-100; Tokyo Rikakikai). The extracts were dissolved in 50 μl of methanol containing 0.5% phosphoric acid. Then, 20 μl from each sample was injected into the HPLC-UV system. […] Shimadzu) with a Cadenza CD-C18 HPLC column (3 μm, 4.6 × 150 mm; […]). […] 8-PN and naringenin amounts were determined using an internal standard method. […] Since a clear peak was actually detected for 8-PN over 2 pmol (0.1 μM), and for naringenin over 4 pmol (0.2 μM) based on visual evaluation, we determined these concentrations were the LODs for each flavonoid.

Details of series [2]: method as in Rad et al., 2006. The note with it: postmenopausal women, mostly conjugated metabolites, ref Rad et al., 2006; cited from earlier work.
The next series concerns the target site II of HSA (Homo sapiens, UniProt P02768). Kind of series: Fluorescence competitive binding assay with site‐selective probe BD140. The note with it: for inhibition at 100 µM: human, defatted human serum albumin (HSA) in phosphate buffer, pH 7.4, probe BD140; for Competitive inhibition rate of the probe binding, Site II: BD140 probe, 100 µM, n = 3, mean ± SE.

site II of HSA, sequence (P02768 25-609): as above
Procedure for site I of HSA: (§1) A fluorescent dye cocktail containing 0.33 mM BD140 and 1 mM DNSA was prepared in DMSO. Defatted HSA (A3782‐1G; Sigma‐Aldrich) was dissolved in phosphate buffer (pH 7.4) at a concentration of 0.67 mg/ml. Each flavonoid was dissolved in DMSO (stock solution) at 100 times the test concentration. Subsequently, 637 µl HSA solution, 6.5 µl fluorescent dye cocktail, and 6.5 µl flavonoid were mixed and divided into three wells on a 96‐well multi‐black plate. The final concentration of flavonoids was 1–100 μM. […] The HSA‐binding affinities of the flavonoids were evaluated by measuring the competitive inhibition rate of the probes binding to flavonoids according to Equation (1): (1) Flavonoidinhibitionpercentage(%)=F1‐F2/F1×100, where F 1 is the fluorescence intensity of DMSO and F 2 represents the fluorescence intensity of each flavonoid.
Procedure for site II of HSA: as §1

Usually inhibition stands for the percentage by which the read-out fell short of the control. On to `CC(C)=CCc1c(O)cc(O)c2c1O[C@H](c1ccc(O)cc1)CC2=O` [8‐PN, 8‐Prenylnaringenin], for which the entries for the “Inhibition ratio, site I” value on site I of HSA (1 µM) and on site I of HSA (50 µM) were 10.3% and 36.7%, respectively. In addition, the inhibition at 100 µM on site I of HSA worked out at 61.1 ± 0.6%; on site II of HSA it was 28.3 ± 2.8%. Besides, the “Percentage of aglycone in the liver” value in series [1] (average of 7 mice) was 11.7%; in series [1] (individual mice #1-7), 15.9% and 20.9% and 9.5% and 6.3% and 7.8% and 5.7% and 15.7%. For the same molecule, the “8‐PN aglycone in the liver” value was 1.58 nmol/g wet tissue in series [1] (average of 7 mice); 0.62 nmol/g wet tissue and 3.23 nmol/g wet tissue and 1.62 nmol/g wet tissue and 1.50 nmol/g wet tissue and 0.66 nmol/g wet tissue and 1.18 nmol/g wet tissue and 2.24 nmol/g wet tissue in series [1] (individual mice #1-7, 22 days diet). Besides, the “Time of absorption into the bloodstream after oral administration” value in series [2] was 1 to 1.5 h.
For `CC(C)=CCc1c(O)cc(O)c2c1OC(c1ccc(O[C@@H]3O[C@H](C(=O)O)[C@@H](O)[C@H](O)[C@H]3O)cc1)CC2=O` (stereo partly shown) [8‐PN‐4′G, 8‐PN 4′‐glucuronide], the “Competitive inhibition rate of the probe binding, Site I” value on site I of HSA was “n.d. ^a (The result without competitive inhibition (≤0) with the fluorescent probe is shown as not determined (n.d.))”. On site II of HSA, the “Competitive inhibition rate of the probe binding, Site II” value (“Competitive inhibition rate … Site II” below) is listed as “n.d. ^a (The result without competitive inhibition (≤0) with the fluorescent probe is shown as not determined (n.d.))”.
With `CC(C)=CCc1c(O[C@@H]2O[C@H](C(=O)O)[C@@H](O)[C@H](O)[C@H]2O)cc(O)c2c1OC(c1ccc(O)cc1)CC2=O` (stereo partly shown) [8‐PN‐7G, 8‐PN 7‐glucuronide], the “Inhibition ratio, site I” value was 12.8% on site I of HSA (1 µM) and 37.9% at site I of HSA (50 µM). Besides, at site I of HSA, the “Competitive inhibition rate of the probe binding, Site I” value came to 37.2 ± 0.6 %. For the same molecule, on site I of HSA (from competition profile for site I (Figure 3)), the “Binding constant to HSA” value came out at 24200 M. In addition, the “Competitive inhibition rate … Site II” value at site II of HSA was “n.d. ^a (The result without competitive inhibition (≤0) with the fluorescent probe is shown as not determined (n.d.))”.
With `O=C1C[C@@H](c2ccc(O[C@@H]3O[C@H](C(=O)O)[C@@H](O)[C@H](O)[C@H]3O)cc2)Oc2cc(O)cc(O)c21` [N4′G, Naringenin 4′‐glucuronide, reference compound], the “Competitive inhibition rate of the probe binding, Site I” value on site I of HSA came out at 5.2 ± 2.8%. The “Competitive inhibition rate … Site II” value on site II of HSA was determined as 2.4 ± 2.4%.
Regarding `O=C1C[C@@H](c2ccc(O)cc2)Oc2cc(O[C@@H]3O[C@H](C(=O)O)[C@@H](O)[C@H](O)[C@H]3O)cc(O)c21` [N7G, naringenin 7‐glucuronide, reference compound], the “Competitive inhibition rate of the probe binding, Site I” value on site I of HSA was 10.0 ± 3.0%. In addition, the “Competitive inhibition rate … Site II” value at site II of HSA stood at 9.6 ± 4.8%.
`O=C1C[C@@H](c2ccc(O)cc2)Oc2cc(O)cc(O)c21` [Naringenin]: the inhibition at 100 µM at site I of HSA was 25.3 ± 0.4%; on site II of HSA, 8.3 ± 3.9%.
